Series [1] is described as follows: H+/Na+ transport assay of bead-derived peptides (one-point).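 Note: relative to parent gramicidin A activity set to 1.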 Format: biochemical. The arrangement: key: relative activity; mean of two control wells = 1.00. Particulars: bead-derived peptide solution, EYPC/EYPG LUVs. An outline of the steps:
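Pyranine (1.0 mM)-loaded LUVs containing egg yolk phosphatidylglycerol were prepared by film hydration, sonication and extrusion, then mixed with diluted bead-derived peptide in 96-well format and vortexed 30 min at room temperature. Fluorescence was normalized between untreated LUVs (0%) and Triton X-100 lysis (100%).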

For series [2] the following is noted: cell viability/%. An outline of the steps: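 Peptide stocks diluted 250× in growth medium; P388 cells 1 × 10^4 cells/mL final; 37 °C, 5% CO2, 92 h. WST-1 + 1-methoxy PMS, 4 h, A415. Output: % viability.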
Series [3] concerns Streptococcus pyogenes SSI-9. Briefly: Antibacterial activity assay of bead-derived peptides (three concentrations). More on the design: key: +++: inhibition by the 640-fold diluted peptide solution; ++: inhibition by the 160-fold diluted solution; +: inhibition by the 40-fold diluted solution; -: no inhibition. Format: cell-based. The following applies: S. pyogenes, bead-derived peptide solution, three concentrations. An outline of the steps: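 First, each peptide stock was diluted 4- and 16-fold in DMSO; next, the three solutions were mixed with S. pyogenes SSI-9 suspension (2 × 10^5 CFU) in cation-adjusted Mueller Hinton Broth plus 5% laked horse blood; finally, plates stood 18 h at 37 °C before checking for grown-cell precipitation.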

The record followed here is article PMC7531004, “Discovery of gramicidin A analogues with altered activities by multidimensional screening of a one-bead-one-compound library” (Nature Communications, 2020).

Where a SMILES comes first, the peptide text is derived from it. [ ]: non-standard residue; d: D form. The star is where a group is joined. NHCH2CH2OH = OCCN*; For = O=C*

By viability is commonly meant a per cent measure of how many cells are alive, often set against a control.

Regarding `CC(C)C[C@@H](NC(=O)[C@H](C)NC(=O)[C@H](NC(=O)[C@H](C)NC(=O)CNC(=O)[C@@H](NC=O)C(C)C)[C@H](C)O)C(=O)N[C@H](C(=O)N[C@H](CC(C)C)C(=O)N[C@@H](Cc1c[nH]c2ccccc12)C(=O)N[C@@H](C(=O)N[C@@H](Cc1c[nH]c2ccccc12)C(=O)N[C@H](CC(C)C)C(=O)N[C@@H](Cc1c[nH]c2ccccc12)C(=O)N[C@@H](C(=O)N[C@@H](Cc1c[nH]c2ccccc12)C(=O)NCCO)[C@H](C)O)C(C)C)C(C)C` [compound 3130] (For-VGA[dT]A[dL]V[dL]W[dV]W[dL]W[dT]W-NHCH2CH2OH), the “H+/Na+ transport activity normalized against the value of 1 (1.00)” value in series [1] is on record as 1.05. The same molecule returned a viability in series [2] of 100%. Moreover, the antibacterial activity result in series [3] is on record as “-”.
The matching figures for `CC(C)C[C@@H](NC(=O)[C@H](Cc1c[nH]c2ccccc12)NC(=O)[C@H](NC(=O)[C@H](Cc1c[nH]c2ccccc12)NC(=O)[C@@H](CC(C)C)NC(=O)[C@@H](NC(=O)[C@H](NC(=O)[C@H](C)NC(=O)[C@H](NC(=O)[C@H](C)NC(=O)CNC(=O)[C@@H](NC=O)C(C)C)C(C)C)C(C)C)C(C)C)[C@H](C)O)C(=O)N[C@@H](Cc1c[nH]c2ccccc12)C(=O)N[C@@H](C(=O)N[C@@H](Cc1c[nH]c2ccccc12)C(=O)NCCO)C(C)C` [compound 3161] (For-VGA[dV]A[dV]V[dL]W[dT]W[dL]W[dV]W-NHCH2CH2OH): 1.00, 100% and “-”.
Taken in the same sequence, the figures for `CC(C)C[C@@H](NC(=O)[C@H](C)NC(=O)[C@H](NC(=O)[C@H](C)NC(=O)CNC(=O)[C@@H](NC=O)C(C)C)C(C)C)C(=O)N[C@H](C(=O)N[C@H](CC(C)C)C(=O)N[C@@H](Cc1c[nH]c2ccccc12)C(=O)N[C@@H](C(=O)N[C@@H](Cc1c[nH]c2ccccc12)C(=O)N[C@@H](C(=O)N[C@@H](Cc1c[nH]c2ccccc12)C(=O)N[C@H](CC(C)C)C(=O)N[C@@H](Cc1c[nH]c2ccccc12)C(=O)NCCO)[C@H](C)O)C(C)C)C(C)C` [compound 3205] (For-VGA[dV]A[dL]V[dL]W[dV]W[dT]W[dL]W-NHCH2CH2OH) were 1.16, 90.2% and “-”.
The matching figures for `CC(C)C[C@@H](NC(=O)[C@H](C)NC(=O)[C@H](NC(=O)[C@H](C)NC(=O)CNC(=O)[C@@H](NC=O)C(C)C)C(C)C)C(=O)N[C@H](C(=O)N[C@@H](C(=O)N[C@@H](Cc1c[nH]c2ccccc12)C(=O)N[C@@H](C(=O)N[C@@H](Cc1c[nH]c2ccccc12)C(=O)N[C@H](CC(C)C)C(=O)N[C@@H](Cc1c[nH]c2ccccc12)C(=O)N[C@@H](C(=O)N[C@@H](Cc1c[nH]c2ccccc12)C(=O)NCCO)C(C)C)C(C)C)[C@H](C)O)C(C)C` [compound 3206] (For-VGA[dV]A[dL]V[dT]W[dV]W[dL]W[dV]W-NHCH2CH2OH): 1.19, 97.4% and “-”.
Take `CC(C)C[C@@H](NC(=O)[C@H](Cc1c[nH]c2ccccc12)NC(=O)[C@@H](CC(C)C)NC(=O)[C@H](Cc1c[nH]c2ccccc12)NC(=O)[C@H](NC(=O)[C@H](Cc1c[nH]c2ccccc12)NC(=O)[C@H](NC(=O)[C@@H](NC(=O)[C@H](NC(=O)[C@H](C)NC(=O)[C@H](NC(=O)[C@H](C)NC(=O)CNC(=O)[C@@H](NC=O)C(C)C)[C@H](C)O)C(C)C)C(C)C)C(C)C)[C@H](C)O)C(=O)N[C@@H](Cc1c[nH]c2ccccc12)C(=O)NCCO` [compound 3226] (For-VGA[dT]A[dV]V[dV]W[dT]W[dL]W[dL]W-NHCH2CH2OH): the “H+/Na+ transport activity normalized against the value of 1 (1.00)” value in series [1] worked out at 1.06. This molecule displayed a viability in series [2] of 87.6%. Also, in series [3], the antibacterial activity result is “-”.
